According to a melting point compilation (Tetko et al.):

Row | Compound | melting point [°C]
1 | Cc1noc(C)c1COc1ccc(CC(=O)O)cc1 | 138 to 140
2 | NC(=NO)c1cccc(Cn2cnc3ccccc32)c1 | 226 to 228
3 | O=C(CCl)Nc1cc([N+](=O)[O-])ccc1F | 125 to 127
4 | Cn1c(Cl)nnc1-c1ccccc1 | 161 to 163
5 | Cc1cc(NC(=O)CCl)no1 | 182 to 190
6 | C#CCNC(=O)C(C)Cl (stereo not drawn) | 61 to 63
7 | O=C(O)C(F)(F)c1c[nH]c(=O)[nH]c1=O | 188 to 190
8 | CN1NC=C2CN=C(Cl)N=C21 | 189 to 191
9 | Nc1ccccc1-c1nc(C2CC2)no1 | 84 to 86
10 | CC(C)N(C)S(=O)(=O)c1ccc(NC(=O)CCl)cc1 | 118 to 120
11 | COc1cc2cc(C(=O)O)[nH]c2cc1OC | 199 to 201
12 | CSC=CC(=O)O | 118 to 120
13 | CS(=O)(=O)NC1CCCNC1 (stereo not drawn) | 123 to 125
14 | O=C1Cc2ccc(Br)cc2N1 | 216 to 220
15 | CCc1nn(C)c(CC)c1S(N)(=O)=O | 177 to 179
16 | Cn1cc(C(N)=O)cc1C(=O)O | 223 to 225
17 | O=C(O)c1cccc(S(=O)(=O)NCc2ccco2)c1 | 190 to 192
18 | CC(C)(Cc1cccc(Cl)c1)C(=O)O | 56 to 58
19 | CC1CC(C)CN(S(=O)(=O)c2cccc(C(=O)O)c2)C1 (stereo not drawn) | 217 to 219
20 | CN(CC(=O)O)S(=O)(=O)c1ccc(Br)cc1 | 179 to 181
21 | Cc1ccc(-c2ccc(C(=O)O)s2)o1 | 197 to 199
22 | CC(C)Nc1cc(F)ccc1[N+](=O)[O-] | 68 to 70
23 | O=C(O)Cn1c(=O)oc2ccccc21 | 178 to 180
24 | CC(=O)Nc1cccc(S(=O)(=O)Cl)c1 | 78 to 80

Row | Compound | melting point [°C]
25 | CC(C)(C)OC(=O)NNC(=O)C(F)(F)F | 119 to 121
26 | C=CCNC(=O)c1cccc(C#N)c1 | 79 to 81
27 | CNS(=O)(=O)c1ccc(Cl)c(C(=O)O)c1Cl | 136 to 138
28 | COC(=O)c1cc(C(=O)OC)cc(S(=O)(=O)Cl)c1 | 105 to 107
29 | CS(=O)(=O)c1ccc(C2CO2)cc1 (stereo not drawn) | 97 to 99
30 | O=C1CCS(=O)(=O)c2c(F)cccc21 | 181 to 183
31 | CC(=O)Oc1ccc(C)cc1C(=O)O | 154 to 156
32 | NCc1nc2ccccc2s1 | 199 to 201
33 | NC(=S)c1ccc(NC(=O)CC2CCCC2)cc1 | 195 to 197
34 | O=C(O)CCNS(=O)(=O)c1cccc(C(F)(F)F)c1 | 113 to 115
35 | N#Cc1ccc(S(=O)(=O)Cl)c(C(F)(F)F)c1 | 70 to 72
36 | O=c1c2ccc(C(F)(F)F)cc2nc2n1CCC2 | 156 to 158
37 | CNc1cc(C(=O)OC)ccc1N | 79 to 81
38 | OCc1ccn(-c2ccccc2)n1 | 49 to 51
39 | COc1ccccc1NC(=O)COc1ccc(C(=O)O)cc1OC | 184 to 186
40 | O=C(O)c1ccc(Sc2ccc(Cl)cc2)o1 | 161 to 163
41 | Cc1noc(C(F)F)c1C(=O)O | 134 to 136
42 | Cc1ccc(-c2cnnc(N)n2)cc1 | 277 to 279
43 | CC(=O)c1ccc(Oc2ccc(C(=O)O)cc2)cc1 | 161 to 163
44 | O=C(O)c1occc1CSc1ccccc1 | 114 to 116
45 | CCOc1ccc2ncc(C#N)c(Cl)c2c1 | 125 to 127
46 | CC(=O)c1ccc(-n2cnnn2)cc1 | 174 to 176
47 | COC(=O)Nc1ccc(O)cc1 | 115 to 117
48 | COc1ccc2ccc(-c3nn(-c4ccccc4)cc3C(=O)O)cc2c1 | 254 to 256

Row | Compound | melting point [°C]
49 | O=C(O)c1ccccc1CN1C(=O)CNC1=O | 201 to 203
50 | Nc1nc(=O)cc[nH]1 | 268 to 272
51 | Clc1cc2c(cc1Cl)OCO2 | 71 to 73
52 | CCOC(=O)c1nc2cc(Cl)ncn2n1 | 194 to 196
53 | CC(C)OC(=O)CC(N)=S | 68 to 70
54 | O=C(O)c1ccn(Cc2ccccc2)c1 | 150 to 152
55 | O=Ic1ccccc1 | 199 to 201
56 | COc1ccc(C(=O)c2ccc(Cl)cc2)cc1C | 121 to 123
57 | Cc1ccc(Nc2nc(N)nc(CCl)n2)cc1 | 158 to 160
58 | Nc1nnc(SCc2ccc(F)cc2)s1 | 145 to 147
59 | COC(=O)CCCCCNC(N)=S | 84 to 86
60 | CC(C)(C)OC(=O)NCc1ccc(C(=O)O)cc1 | 164 to 166
61 | CCOc1ccc(N)c(C(F)(F)F)c1 | 69 to 71
62 | COC(=O)C1CSCC(c2ccccc2)N1 (stereo not drawn) | 96 to 98
63 | CN(CC(=O)N1CCOCC1)C(=O)CCl | 75 to 77
64 | O=C(O)c1cnn(-c2ccc([N+](=O)[O-])cc2)c1 | 258 to 260
65 | O=[N+]([O-])c1cc(S(=O)(=O)N2CCOCC2)ccc1N1CCOCC1 | 154 to 156
66 | Nc1cccc(-n2cnnc2)c1 | 199 to 201
67 | Cc1cc(C(=O)O)c2cc(Br)ccc2n1 | 259 to 261
68 | N#Cc1ccc(N2CCC(N)CC2)cc1 | 84 to 86
69 | COc1ccc([N+](=O)[O-])cc1NC(=O)C(C)Cl (stereo not drawn) | 131 to 133
70 | Nc1cccc(-c2csc(N)n2)c1 | 174 to 176
71 | CN(C)c1cccc(C(=O)NN)c1 | 99 to 101
72 | O=C1CN(C(=O)CCl)CCN1 | 124 to 126

Row | Compound | melting point [°C]
73 | O=C(Cc1ncc[nH]1)c1ccc(Cl)cc1F | 140 to 142
74 | O=C(O)C=CC1CCOCC1 | 134 to 136
75 | COc1ccc(C(C)=O)cc1CC(=O)O | 122 to 124
76 | CCC(Nc1ccccc1)C(=O)O (stereo not drawn) | 139 to 141
77 | O=C(CO)NC1CCCc2ccccc21 (stereo not drawn) | 114 to 116
78 | O=C(O)CNS(=O)(=O)c1ccc2ccccc2c1 | 180 to 182
79 | Cc1ccc(-n2nc(C)cc2N)nn1 | 119 to 121
80 | NC(=O)c1cccc([N+](=O)[O-])c1O | 154 to 156
81 | CC(C)CC1(C)NC(=O)NC1=O (stereo not drawn) | 145 to 147
82 | ClCc1csc(-c2ccccc2Cl)n1 | 55 to 57
83 | O=C1CCCS(=O)(=O)c2ccccc21 | 151 to 153
84 | O=C(CO)Nc1ccc(Oc2ccccc2)cc1 | 149 to 151
85 | COc1cc(-c2noc(CCl)n2)ccc1C | 73 to 75
86 | Nc1ccc(NC(=O)CN2CCCCCC2)cc1 | 82 to 84
87 | c1c[nH]c(C2CCNCC2)n1 | 176 to 178
88 | Cc1nc(Cl)c2c(-c3ccccc3)csc2n1 | 169 to 173
89 | O=C(O)c1ccc(Cl)cc1NS(=O)(=O)c1ccccc1 | 189 to 191
90 | O=C1OC(=O)c2cc([N+](=O)[O-])cc3cc([N+](=O)[O-])cc1c23 | 216 to 218
91 | Nc1nncc(-c2ccccc2OC(F)F)n1 | 159 to 161
92 | C=CCN1C(=O)C(=NN)c2ccccc21 | 129 to 132
93 | Cc1ccc(Oc2ccc(N)cn2)cc1C | 56 to 58
94 | O=S(=O)(Cl)c1cc(Br)ccc1Cl | 64 to 66
95 | NCC1(O)CCSCC1 | 65 to 67
96 | CS(=O)(=O)c1cc([N+](=O)[O-])c(Cl)s1 | 148 to 150

Row | Compound | melting point [°C]
97 | Nc1sc2c(c1C(=O)c1ccccc1)CCCC2 | 123 to 127
98 | CC(Cl)C(=O)NCc1ccc(Cl)cc1 (stereo not drawn) | 100 to 102
99 | COc1cc(F)ccc1[N+](=O)[O-] | 49 to 51
100 | NC(CN1CCCC1=O)c1cccc(C(F)(F)F)c1 (stereo not drawn) | 76 to 78
101 | O=C(O)CCSc1ccccc1 | 59 to 61
102 | CCN(CC)C(=O)Cn1cccc(C(=O)O)c1=O | 114 to 116
103 | COc1ccc(Br)cc1Cl | 69 to 71
104 | O=C(CCCl)Nc1ccccc1Br | 104 to 106
105 | NC(CC(=O)N1CCOCC1)=NO | 147 to 149
106 | CCCc1nc(C(=O)O)nn1-c1ccccc1F | 137 to 139
107 | CC(=O)c1cccc(N2CCOC2=O)c1 | 82 to 84
108 | CC(C)NC(=O)CNS(=O)(=O)CCC(=O)O | 125 to 127
109 | Nc1ccccc1-c1ccc(-c2ccccc2)cc1 | 163 to 165
110 | O=C(O)c1ccc2nnc(C(F)F)n2c1 | 278 to 280
111 | CC(NS(=O)(=O)c1cccc(C(=O)O)c1)c1ccccc1 (stereo not drawn) | 149 to 151
112 | Cc1nc2c(F)cccc2c(Cl)c1C(C)C | 47 to 49
113 | NCc1ccccc1N1CCCC(C(N)=O)C1 (stereo not drawn) | 97 to 99
114 | COc1ccc(OCC(=O)NN)cc1 | 142 to 144
115 | CC(NC(=O)CCl)C1CC1 (stereo not drawn) | 50 to 52
116 | CCC(=CC(=O)O)c1ccc(C)cc1 | 116 to 118
117 | Fc1ccc2nc(S)n(-c3ccccc3F)c2c1 | 220 to 222
118 | Cc1cnc(-c2cccc(N)c2)o1 | 107 to 109
119 | O=C(Nc1ccccc1C(=O)O)c1ccc(Cl)cc1 | 208 to 210
120 | CCOc1ccc(C=C(C#N)C(=O)O)cc1 | 228 to 230

Row | Compound | melting point [°C]
121 | COc1cc(CCl)c(OC)cc1Br | 65 to 67
122 | Cc1cc(N)nn1-c1ccc(Cl)c(Cl)c1 | 124 to 126
123 | Nc1ccc(S(=O)(=O)NCC(F)(F)F)cc1 | 128 to 130
124 | COC(=O)c1c(-c2ccc(F)cc2)csc1N | 135 to 137
125 | CC(C)c1ccccc1Oc1ccccc1C(=O)O | 133 to 135
126 | ClCc1nc(-c2nc[nH]n2)no1 | 187 to 189
127 | COC(=O)c1cc(Cl)cc([N+](=O)[O-])c1O | 163 to 165
128 | Cc1cc(C(=O)O)c(C)n1-c1cccc(Cl)c1 | 160 to 162
129 | O=C(O)c1csc(S(=O)(=O)Cl)c1 | 130 to 132
130 | Cc1ccc2[nH]nc(C(=O)O)c2c1 | 273 to 275
131 | O=C(O)CCc1cccc(F)c1F | 106 to 108
132 | CC1(C)NC(=O)N(CC#N)C1=O | 155 to 157
133 | CC(=O)N1Cc2ccccc2CC1C(=O)O (stereo not drawn) | 173 to 175
134 | CCCCn1c2c(c(=O)n(C)c1=O)C(CC(=O)O)C(=O)N2 (stereo not drawn) | 229 to 231
135 | N#Cc1ccc(N2CCN(c3ccc(F)cc3)CC2)nc1 | 166 to 168
136 | Cc1cc(Cl)n(-c2ccc(C#N)cc2)n1 | 103 to 105
137 | NCc1ccccc1CS(=O)(=O)N1CCOCC1 | 90 to 92
138 | O=C(O)CS(=O)(=O)c1ccc(Cl)cc1 | 122 to 124
139 | CC(N)c1cccc(O)c1 (stereo not drawn) | 166 to 168
140 | Cn1cc(C=O)c(=O)n(C)c1=O | 121 to 123
141 | O=C(c1cccnc1)c1cccc(Cl)c1 | 47 to 49
142 | CCc1ocnc1C(=O)O | 104 to 106
143 | CC1CC(=O)NC1=O (stereo not drawn) | 61 to 63
